Measured values reported in paper PMC8539145, “Function and Characterization Analysis of BodoOBP8 from Bradysia odoriphaga (Diptera: Sciaridae) in the Recognition of Plant Volatiles and Sex Pheromones” (Insects, 2021).
Values joined by “and” are separate entries in the source; they are usually repeats but may differ in a detail not shown here. Identical values can stand only once. Like-named read-outs stand apart in the source and are kept apart here.

Target: BodoOBP8 (Bradysia odoriphaga, UniProt A0A2S0X9G3)
Sequence (A0A2S0X9G3 entry or part of it): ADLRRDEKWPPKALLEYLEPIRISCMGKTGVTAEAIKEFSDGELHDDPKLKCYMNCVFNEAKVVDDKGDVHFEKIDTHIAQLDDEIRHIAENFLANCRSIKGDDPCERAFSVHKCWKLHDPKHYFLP
Assay: Fluorescence competitive binding assay (1-NPN probe) with recombinant BodoOBP8
Protocol: For the binding assays, all test ligands (Table S1) were dissolved in methanol, and N-phenyl-1-naphthylamine (1-NPN) was used as a fluorescent probe.

[1] = recombinant BodoOBP8, calculated from IC50 of 1-NPN displacement, read-out: Ki
[2] = recombinant BodoOBP8, displacement of 1-NPN, read-out: IC50
[3] = Ki, recombinant BodoOBP8, calculated from IC50 of 1-NPN displacement
[4] = pH 7.4, Figure 3B, read-out: Ki

Compound: CCCCCCCCCCCC=O [Dodecyl aldehyde]
- Ki [1]: > 50 µM
- IC50 [2]: > 50 µM

Compound: CCCCOC(=O)CCC(C)=O [Butyl levulinate]
- Ki [1]: > 50 µM
- IC50 [2]: > 50 µM

Compound: O=Cc1ccccc1 [Benzaldehyde]
- IC50: > 50 µM
- Ki [3]: > 50 µM

Compound: C=CC(C)=CCC=C(C)C [Ocimene]
- Ki [1]: > 50 µM
- IC50 [2]: > 50 µM

Compound: C=C(C)[C@H]1CC=C(C)CC1 [(R)-(+)-Limonene]
- Ki [1]: > 50 µM
- IC50 [2]: > 50 µM

Compound: CC(C)=CCCC(C)CCO (stereo not drawn) [Citronellol]
- Ki [1]: > 50 µM
- IC50 [2]: > 50 µM

Compound: CCCCCCCCCCCC [Dodecane]
- Ki [1]: > 50 µM
- IC50 [2]: > 50 µM

Compound: CCCCCCCC=O [Octanal]
- Ki [1]: > 50 µM
- IC50 [2]: > 50 µM

Compound: CCCCCCCCCCCCCCCC [Hexadecane]
- Ki [1]: > 50 µM
- IC50 [2]: > 50 µM

Compound: CCCCCCCCC [Nonane]
- Ki [1]: > 50 µM
- IC50 [2]: > 50 µM

Compound: COC(=O)c1ccccc1O [Methyl salicylate]
- IC50: > 50 µM
- Ki [3]: > 50 µM

Compound: CCCCCCCCCCCCCCCCC [n-Heptadecane]
- Ki [4]: 4.04 µM
- Ki [1]: 4.04 µM and < 10 µM
- IC50 [2]: 6 µM

Compound: CC(=O)c1ccccc1 [Acetophenone]
- Ki [1]: > 50 µM
- IC50 [2]: > 50 µM

Compound: C=C1CCC2CC1C2(C)C (stereo not drawn) [ß-pinene]
- Ki [1]: > 50 µM
- IC50 [2]: > 50 µM

Compound: CC/C=C\CCO [cis-3-Hexen-1-ol]
- IC50: > 50 µM
- Ki [3]: > 50 µM

Compound: Cc1ccc(C(C)C)cc1O [Carvacrol]
- IC50: > 50 µM
- Ki [3]: > 50 µM

Compound: COC(=O)Cc1ccccc1 [Methyl phenylacetate]
- IC50: > 50 µM
- Ki [3]: > 50 µM

Compound: CCCCC(C)=O [2-Hexanone]
- IC50: > 50 µM
- Ki [3]: > 50 µM

Compound: C=C1CC/C=C(/C)CC[C@@H]2[C@@H]1CC2(C)C [ß-caryophyllene]
- Ki [1]: > 50 µM
- IC50 [2]: > 50 µM

Compound: CC(=O)/C=C/C1=C(C)CCCC1(C)C [ß-Ionone]
- Ki [1]: > 50 µM
- IC50 [2]: > 50 µM

Compound: CCCCC=O [Valeric aldehyde]
- Ki [1]: > 50 µM
- IC50 [2]: > 50 µM

Compound: C=CC(C)(O)CCC=C(C)C (stereo not drawn) [Linalool]
- IC50: > 50 µM
- Ki [3]: > 50 µM

Compound: CCCCCCCCC=O [Nonanal]
- Ki [1]: > 50 µM
- IC50 [2]: > 50 µM

Compound: c1ccc2[nH]ccc2c1 [(H-11)Indole, Indole]
- IC50: > 50 µM
- Ki [3]: > 50 µM

Compound: CCCCCCC=O [Heptanal]
- Ki [1]: > 50 µM
- IC50 [2]: > 50 µM

Compound: CCCCCCCCCCCCCC [Tetradecane]
- Ki [1]: > 50 µM
- IC50 [2]: > 50 µM

Compound: CC12CCC(CC1)C(C)(C)O2 [1,8-Cineole]
- Ki [1]: > 50 µM
- IC50 [2]: > 50 µM

Compound: C/C1=C\CC/C(C)=C/CC(C)(C)/C=C/C1 [α-Humulene]
- Ki [1]: > 50 µM
- IC50 [2]: > 50 µM

Compound: c1ccc(Nc2cccc3ccccc23)cc1 [1-NPN, N-phenyl-1-naphthylamine, reference compound]
- Kd: 2.21 µM

Compound: C=CCSSCC=C [Diallyl disulfide]
- IC50: 10 µM
- Ki (Ki, pH 7.4, Figure 3B): 4.04 µM
- Ki [3]: 6.73 µM
- Ki (recombinant BodoOBP8, calculated from IC50 of 1-NPN displacement): < 10 µM

Compound: CCCCCCCCCC=O [Decanal]
- Ki [1]: > 50 µM
- IC50 [2]: > 50 µM

Compound: C=CCSSC [Methyl allyl disulfide]
- Ki [4]: 6.73 µM
- IC50 [2]: 8 µM
